Measured values reported in patent publication US12527754B2, “Methods and compositions for preventing and treating metabolic syndrome induced by antipsychotic treatment and related diseases and conditions” (Tufts Medical Center, Inc., priority 2018, dated 2026).

Legend:
[1] = MetS induced by high-fat diet (HFD) in mice; type: in vivo; conditions: C57Bl/j male mice on HFD, benserazide 50 mg/day p.o., 12 weeks
Description: In other experiments, we conducted a pre-clinical trial of benserazide on the development of MetS induced by high-fat diet (HFD). HFD was fed to C57Bl/j male mice (6 weeks of age). Benserazide, 50 mg/day, p.o., was administered for 12 weeks (five days/week). Differences (p<0.05) were considered as statistically significant (Mann-Whitney two-tailed test).

[2] = C57BL female mice, N = 10; end of 10-week treatment
Description: (§1) C57BL female mice (n=10 mice in each group) were treated with olanzapine (4 mg/kg, po) (control) or with a combination of olanzapine (4 mg/kg, po) and benserazide (100 mg/day, po), 5 days per week for 10 weeks.
(§2) Body weight was checked two times per week. Glucose tolerance, a marker of IR, was determined by a glucose tolerance test (GTT) at the end of the study (day 71). In addition, blood samples were analyzed for cholesterol (total) and triglycerides.

[3] = GTT at day 71; C57BL female mice, N = 10
Description: as §1, §2

Compound | Elevation of blood cholesterol induced by HFD, change ([1]; five days/week) | Elevation of triglycerides induced by HFD, change ([1]; five days/week) | Excessive weight gain induced by HFD, change ([1]; five days/week) | Glucose tolerance impairment induced by HFD ([1]; result in words) | Effect on weight gain induced by olanzapine (benserazide 100 mg/day po with olanzapine 4 mg/kg po, 10 weeks, result in words) | Body weight, Day 1 (C57BL female mice, n = 10, olanzapine 4 mg/kg po with or without benserazide 100 mg/day po, 5 days per week for 10 weeks, Day 1) | Body weight, Day 71 (C57BL female mice, n = 10, olanzapine 4 mg/kg po with or without benserazide 100 mg/day po, 5 days per week for 10 weeks, Day 71) | Cholesterol (total, blood) [2] | Triglycerides (blood) [2] | Glucose levels 90 minutes after ingestion of sugar [3] | Glucose levels baseline (before ingestion of sugar) [3]
NC(CO)C(=O)NNCc1ccc(O)c(O)c1O (centres unmarked) [Benserazide, seryl-(2,3,4-trihydroxybenzyl)-hydrazide] | −17% | −25% | −40% | attenuated | attenuated weight gain |  |  |  |  |  | 
Cc1cc2c(s1)Nc1ccccc1N=C2N1CCN(C)CC1 [Olanzapine] |  |  |  |  |  | 17.4 ± 0.13 | 34.0 ± 0.09 | 172.33 ± 4.536 | 151.00 ± 5.37 | 520.55 ± 15.63 | 183.25 ± 10.49
